Counter-ions that a name gives are not always drawn. Like-named read-outs stand apart in the source and are kept apart here.
Legend:
[1] = target: T1, α2δ subunit (Sus scrofa, UniProt A0A287BIN3); assay: radioligand binding assay using [3H]gabapentin and the α2δ subunit; set-up: species or system porcine
T1 construct: the α2δ subunit derived from porcine brain tissue was used; from tissue; host or cells: porcine brain tissue

[2] = system: Carrageenan Induced Thermal Hyperalgesia in the Rat; assay: Carrageenan-induced thermal hyperalgesia in the rat (plantar test, paw withdrawal latency); format: in vivo; settings: MPE = maximum possible effect, baseline before carrageenan
Method: Male Sprague-Dawley rats (180-250 g) were obtained from Bantin and Kingman, (Hull, U.K.). Animals were housed in groups of 6 to 10 under a 12 hour light/dark cycle (lights on at 7 hours, 0 minutes) with food and water ad libitum.
Carrageenan-induced Thermal Hyperalgesia in the Rat
Thermal hyperalgesia was assessed using the rat plantar test (Ugo Basile, Italy) following a modified method of Hargreaves, et al., 1988. Rats were habituated to the apparatus which consisted of three individual perspex boxes on an elevated glass table. A mobile radiant heat source located under the table was focused onto the desired paw and paw withdrawal latencies (PWL) recorded. PWL were taken 3 times for both hind paws of each animal, the mean of which represented baselines for right and left hind paws. At least 5 minutes were allowed between each PWL for an animal. The apparatus was calibrated to give a PWL of approximately 10 s. There was an automatic cutoff point of 20 s to prevent tissue damage. After baseline PWLs were determined, animals received an intraplantar injection of carrageenan (100 μL of 20 mg/mL) into the right hind paw. PWLs were reassessed following the same protocol as above 2-hour post-carrageenan (this time point represented the start of peak hyperalgesia) to ascertain that hyperalgesia had developed. Test compounds were administered orally (in a volume of 1 mL/kg) at 2.5 hours after carrageenan. PWLs were reassessed at various times after drug administration.

[3] = system: sound-induced tonic seizures in DBA/2 mice; assay: DBA2 test: prevention of audiogenic seizures in DBA/2 mice; format: in vivo; settings: DBA/2 mouse
Method: A Model of Anticonvulsant Efficacy and Protocol for DBA2 Test: Prevention of Audiogenic Seizures in DBA/2 Mice
All procedures were carried out in compliance with the NI/H Guide for the Care and Use of Laboratory Animals under a protocol approved by the Parke-Davis Animal Use Committee. Male DBA/2 mice, 3 to 4 weeks old, were obtained from Jackson Laboratories, Bar Harbour, Me. Immediately before anticonvulsant testing, mice were placed upon a wire mesh, 4 inches square suspended from a steel rod. The square was slowly inverted through 180 degrees and mice observed for 30 seconds. Any mouse falling from the wire mesh was scored as ataxic.
Mice were placed into an enclosed acrylic plastic chamber (21 cm height, approximately 30 cm diameter) with a high-frequency speaker (4 cm diameter) in the center of the top lid. An audio signal generator (Protek model B-810) was used to produce a continuous sinusoidal tone that was swept linearly in frequency between 8 kHz and 16 kHz once each 10 msec. The average sound pressure level (SPL) during stimulation was approximately 100 dB at the floor of the chamber. Mice were placed within the chamber and allowed to acclimatize for 1 minute. DBA/2 mice in the vehicle-treated group responded to the sound stimulus (applied until tonic extension occurred, or for a maximum of 60 seconds) with a characteristic seizure sequence consisting of wild running followed by clonic seizures, and later by tonic extension, and finally by respiratory arrest and death in 80% or more of the mice. In vehicle-treated mice, the entire sequence of seizures to respiratory arrest lasts approximately 15 to 20 seconds.
The incidence of all the seizure phases in the drug-treated and vehicle-treated mice was recorded, and the occurrence of tonic seizures were used for calculating anticonvulsant ED50 values by probit analysis. Mice were used only once for testing at each dose point. […] All drugs in the present study were dissolved in distilled water and given by oral gavage in a volume of 10 mL/kg of body weight. compounds that are insoluble will be suspended in 1% carboxymethocellulose. Doses are expressed as weight of the active drug moiety.

T1 sequence (A0A287BIN3 25-1109): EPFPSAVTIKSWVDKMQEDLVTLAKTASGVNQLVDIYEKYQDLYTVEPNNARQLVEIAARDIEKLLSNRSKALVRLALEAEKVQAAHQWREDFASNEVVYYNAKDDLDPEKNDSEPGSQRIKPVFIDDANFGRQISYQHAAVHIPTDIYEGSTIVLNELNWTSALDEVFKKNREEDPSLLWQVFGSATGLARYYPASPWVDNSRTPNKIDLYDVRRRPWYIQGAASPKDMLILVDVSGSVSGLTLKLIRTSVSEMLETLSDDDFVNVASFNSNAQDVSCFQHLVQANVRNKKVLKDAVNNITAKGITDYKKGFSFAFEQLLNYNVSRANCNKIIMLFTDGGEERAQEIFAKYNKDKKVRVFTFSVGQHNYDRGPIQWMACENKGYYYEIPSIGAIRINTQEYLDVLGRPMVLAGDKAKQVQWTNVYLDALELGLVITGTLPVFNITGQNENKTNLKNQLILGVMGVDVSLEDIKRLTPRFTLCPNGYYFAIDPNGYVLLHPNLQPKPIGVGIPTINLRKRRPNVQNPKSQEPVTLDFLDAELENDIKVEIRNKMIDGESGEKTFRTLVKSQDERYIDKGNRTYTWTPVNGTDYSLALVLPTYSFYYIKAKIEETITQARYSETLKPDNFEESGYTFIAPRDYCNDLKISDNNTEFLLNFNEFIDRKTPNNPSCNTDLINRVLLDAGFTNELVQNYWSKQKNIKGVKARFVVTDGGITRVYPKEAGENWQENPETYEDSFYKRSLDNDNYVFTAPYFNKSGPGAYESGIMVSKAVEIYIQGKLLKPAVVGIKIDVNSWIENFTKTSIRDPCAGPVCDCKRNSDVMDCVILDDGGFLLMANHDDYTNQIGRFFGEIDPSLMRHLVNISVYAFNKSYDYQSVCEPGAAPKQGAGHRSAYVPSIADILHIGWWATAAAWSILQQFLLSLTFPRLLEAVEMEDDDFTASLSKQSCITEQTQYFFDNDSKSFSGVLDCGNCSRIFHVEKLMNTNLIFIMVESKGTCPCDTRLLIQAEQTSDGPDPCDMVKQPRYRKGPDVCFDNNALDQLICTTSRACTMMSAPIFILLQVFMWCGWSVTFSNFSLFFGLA

Compound | IC50 [1] [µM] | % MPE 1 hr postdose @ 30 mg/kg PO [2] [% MPE] | % MPE 2 hr postdose @ 30 mg/kg PO [2] [% MPE] | IC50 ([1]; read-out: IC50 (μM) at α2δ binding site) [µM] | % Protected 1 hr postdose 30 mg/kg PO [3] [%] | % Protected (2 hour postdose) 30 mg/kg PO ([3]; 2 hour postdose)
C[C@@H]1CC(CN)(CC(=O)O)C[C@H]1C [(3R,4R)-(1-Aminomethyl-3,4-dimethyl-cyclopentyl)-acetic acid hydrochloride] | 1 | – | – | – | – | –
C[C@@H]1C[C@](CN)(CC(=O)O)C[C@@H]1C [(1α,3β,4β)-(1-Aminomethyl-3,4-dimethyl-cyclopentyl)-acetic acid hydrochloride] | – | −7 | −2 | 0.154 | 100 | –
C[C@@H]1CC(CN)(CC(=O)O)C[C@H]1C.Cl (racemic) [(±)-(trans)-(1-Aminomethyl-3,4-dimethyl-cyclopentyl)-acetic acid hydrochloride] | 0.034 | 23 | 72 | – | 100 | –
C[C@@H]1CCC(CN)(CC(=O)O)C1 (mixture of isomers) [(cis/trans)-(3R)-(1-Aminomethyl-3-methyl-cyclopentyl)-acetic acid hydrochloride] | 0.088 | 67 | 53 | – | 100 | –
C[C@H]1CC(CN)(CC(=O)O)C[C@@H]1C.Cl [(3S,4S)-(1-Aminomethyl-3,4-dimethyl-cyclopentyl)-acetic acid hydrochloride] | 0.022 | 109 | 118 | – | 100 | –
NCC1(CC(=O)O)CC(Cc2ccccc2)C1 (mixture of isomers) [(cis/trans)-(1-Aminomethyl-3-benzyl-cyclobutyl)-acetic acid hydrochloride] | > 10 | 0 | 0 | – | – | –
Cl.NCC1(CC(=O)O)CCC1 [(1-Aminomethyl-cyclobutyl)-acetic acid hydrochloride] | 0.598 | 4 | 4 | – | – | 20 (2 hour postdose) %

Reference: patent US6921835B2, “Cyclic amino acids and derivatives thereof useful as pharmaceutical agents” (Warner Lambert Company, priority 1997, dated 2005)
